Laboratory results: patent US20180231561A1, “METHODS FOR TREATING SOLID TUMORS AND THE USE OF BIOMARKERS AS A PREDICTOR OF CLINICAL SENSITIVITY TO IMMUNOMODULATORY THERAPIES” (CELGENE CORPORATION, priority 2015, published 2018)
Entries after “also recorded” stand apart in the source; their conditions may differ. Where a SMILES comes first, the peptide text is derived from it. The star is where a group is joined. Cbz = O=C(OCc1ccccc1)*

Columns and labels:
FOCUS cell line = experiment: Proteomic screening in FOCUS cell line under 3D culture; format: cell-based; details: 3D conditions
Method: (§1) Both HCC cells, Focus and JHH4 in 3D setting, were cultured continuously for 15 days treated with either DMSO or Compound A, or were first cultured for about 7 days prior to treatment with either DMSO or Compound A for 24 hours or 72 hours. Cells were harvested and proteins were prepared from the cells for proteomics analysis. The growth of the cells on control plates was also analyzed. In particular, cells were plated in media containing either DMSO or Compound A. Cells were cultured for certain time, and then were harvested onto filter plates. After the plates have dried, scintillation fluid was added to the plates and read on a Top-count reader.

ZFP91 [1] = experiment: Western blot of ZFP91 protein level in HCC cell lines Focus and JHH4; format: cell-based; details: for effect on Compound A-induced ZFP91 degradation: Focus and JHH4, 2D, 10 μM for 1 hour, then 5 μM Compound A for 6 hours
Method: as §1
Focus cells were cultured for 18 days either continuously for 18 days in the medium containing DMSO, Compound A, or Compound B, or cultured for 7 days prior to treating with DMSO, Compound A, or Compound B for 11 days. Then cells were harvested and were treated in 200 μl cold cell lysis buffer (1% Triton X-100 from Cell Signaling supplemented with protease inhibitors and phophatase inhibitors from Roche) to generate cell lysate. Proteins from cell lysate were separated by 4-12% nupage gels (Invitrogen) and transferred to nitrocellulose membranes. Immunoblots were then probed with antibodies recognizing CRBN, ZFP91 (LSBio) and β-actin (Li-Cor). Signals were detected with a Li-Cor Odyssey Imager. As shown, the level of ZFP91 reduced in response to treatment with Compound A or Compound B.
(§2) HCC cells from both Focus and JHH4 cell lines in 2D setting treated with Compound A for 6 hours, 24 hours, and 72 hours, and JHH4 cells in 3D setting treated with Compound A for 15 days were also analyzed by western blot. Cells were harvested and were treated in 200 μl cold cell lysis buffer (1% Triton X-100 from Cell Signaling supplemented with protease inhibitors and phophatase inhibitors from Roche) to generate cell lysate. Proteins from cell lysate were separated by 4-12% Nupage gels (Invitrogen) and transferred to nitrocellulose membranes. Immunoblots were then probed with antibodies recognizing CRBN, ZFP91 (LSBio), P-TBK1, and β-actin (Li-Cor). Signals were detected with a Li-Cor Odyssey Imager. As shown, the level of ZFP91 reduced in response to treatment with Compound A for 6 hours, 24 hours, or 72 hours in both cell lines in 2D setting. […] The level of CRBN increased in response to treatment with Compound A for 6 hours, 24 hours, or 72 hours in both cell lines in 2D setting. […] ZFP91 degradation induced by various doses of Compound A for various time periods was also tested in both Focus and JHH4 cells, as shown in FIG. 4C.
HCC cells from both Focus and JHH4 cell lines in 2D setting were first treated with 10 μM MG132 or MLN4924 for 1 hour, and then were treated with 5 μM DMSO or 5 μM Compound A for 6 hours. Cells were harvested and were treated in cell lysis buffer to generate cell lysate. Proteins from cell lysate were separated by gel electrophoresis and transferred to nitrocellulose membranes. Immunoblots were then probed with antibodies recognizing CRBN, ZFP91 (LSBio), and β-actin (Li-Cor). The results were shown in FIG. 5A, and as shown, both […] or MLN4924 inhibited ZFP91 degradation. MG132 activates c-Jun N-terminal kinase (JNK1), which initiates apoptosis. […] MLN4924 is a NAE1 inhibitor that blocks the activity of Cullin Ring Ligases (CRLs), such as CRL4CRBN.

JHH4 cells = experiment: Colony growth on control plates, 3D JHH4 cells; format: cell-based; details: 3D JHH4, control plates, vs DMSO
U87 tumor = experiment: U87 xenograft tumor growth; format: in vivo; details: 3 and 30 mg/kg qd
ZFP91 [2] = experiment: Western blot of ZFP91 level in glioblastoma cell lines U87 and SNB19; format: cell-based, human; details: U87 and SNB19 cells
Method: The change of ZFP91 level in response to treatment compounds was evaluated in other solid tumor cell lines, e.g., glioblastoma (GBM) cell lines. […] Proteins from cell lysate were separated by electrophoresis gel and transferred to nitrocellulose membranes. Immunoblots were then probed with antibodies recognizing ZFP91 and β-actin. Signals were detected with a Li-Cor Odyssey Imager.

[3] = test system: MST1R (RON), PARP4, MVP, ZFP91, IKBKE, PDE6D, CK1alpha, LGALS2, KAT1, GSPT1, CRBN; experiment: Western blot confirmation of proteins identified in the proteomic studies (FIG. 8); format: cell-based
Description: Representative proteins identified in the proteomic studies were confirmed in western blot analysis, such as those shown in FIG. 8.

[4] = test system: HCC xenografts (excised xenograft tumors of HAK-1AJ and Focus); experiment: Proteomic screening (TMT) of HCC xenografts treated with DMSO or Compound A; format: cell-based
Method: HCC xenografts (excised xenograft tumors of HAK-1AJ and Focus) were treated with either with DMSO, or Compound A for either once (single) or multiple times. Cells were harvested at 24 or 72 hours time points, and proteins were fractionated using a basic pH reverse gradient method. Fractionated samples were labeled using a Tandem Mass Tag (TMT) method. Relative abundance was calculated.

ZFP91 [5] = experiment: Western blot of ZFP91 protein level in HCC cell lines Focus and JHH4; format: cell-based; details: for effect of the compound on ZFP91 after knocking down of CRBN: CRBN knockdown, Focus and JHH4 cells
P-TBK1 = experiment: Western blot of P-TBK1 in HCC cells; format: cell-based; details: 3D setting
Method: as §2

CRBN [6] = experiment: Western blot of CRBN protein level in HCC cell lines Focus and JHH4; format: cell-based
Method: as §2, with “Both HCC cells, Focus and JHH4 in 3D setting, were cultured continuously for 15 days treated with either DMSO or Compound A, or were first cultured for about 7 days prior to treatment with either DMSO or Compound A for 24 hours or 72 hours. Cells were harvested and proteins were prepared from the cells for proteomics analysis. The growth of the cells on control plates was also analyzed. In particular, cells were plated in media containing either DMSO or Compound A. Cells were cultured for certain time, and then were harvested onto filter plates. After the plates have dried, scintillation fluid was added to the plates and read on a Top-count reader. HCC” for “HCC”

Hep3B cells = experiment: Growth response of Hep3B cells to treatment compounds (FIG. 6B); format: cell-based, human
ZFP91 [7] = experiment: Immunostaining of ZFP91 in U87 xenograft tissue; format: in vivo
JHH4 cell line = experiment: Proteomic screening in JHH4 cell line under 3D culture; format: cell-based
Method: as §1

ZFP91 [8] = experiment: Western blot of ZFP91 level in Hep3B cells; format: cell-based, human
Method: The change of ZFP91 level in response to Compound A or Compound B treatments was also evaluated in human hepatoma Hep3B cell lines. Hep3B cells were treated with Compound A or Compound B, and cells were harvested and treated in lysis buffer to generate cell lysate. Proteins from cell lysate were separated by electrophoresis gel and transferred to nitrocellulose membranes. Immunoblots were then probed with antibodies recognizing CRBN, ZFP91, and β-actin. Signals were detected with a Li-Cor Odyssey Imager. The results were shown in the upper panel of FIG. 6A. […] Thus, ZFP91 may be degraded in response treatment compounds regardless of growth response of the cells to the treatment compounds.

Focus cells = experiment: Colony growth on control plates, 3D Focus cells; format: cell-based; details: vs DMSO
NF-κB = details: read-out: IC50 NF-κB activation; cited from earlier work
CRBN [9] = target: CRBN (Homo sapiens, UniProt Q96SW2); details: in vitro; cited from earlier work
[10] = Focus and JHH4, 2D setting, 6 hours, 24 hours or 72 hours
[11] = Focus and JHH4, 3D, control plate and proteomic preparation, beta-actin control
[12] = Focus cells, 18 days continuous, or 7 days culture then 11 days treatment

Chain of CRBN (Homo sapiens, UniProt Q96SW2) (Q96SW2 whole entry, species assumed): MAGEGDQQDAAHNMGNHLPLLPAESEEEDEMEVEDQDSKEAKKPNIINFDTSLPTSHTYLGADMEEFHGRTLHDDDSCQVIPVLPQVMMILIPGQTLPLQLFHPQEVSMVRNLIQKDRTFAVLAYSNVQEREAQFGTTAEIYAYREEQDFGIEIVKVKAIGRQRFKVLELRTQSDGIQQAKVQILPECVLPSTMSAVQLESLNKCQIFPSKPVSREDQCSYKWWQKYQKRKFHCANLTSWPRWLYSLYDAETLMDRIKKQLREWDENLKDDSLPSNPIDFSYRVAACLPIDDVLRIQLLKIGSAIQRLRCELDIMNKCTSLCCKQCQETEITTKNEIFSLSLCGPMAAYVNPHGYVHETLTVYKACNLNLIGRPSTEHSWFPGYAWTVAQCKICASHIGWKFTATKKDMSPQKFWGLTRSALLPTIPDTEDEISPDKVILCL
Chain of CRBN (Homo sapiens, UniProt Q96SW2) (Q16531 whole entry partner, species assumed): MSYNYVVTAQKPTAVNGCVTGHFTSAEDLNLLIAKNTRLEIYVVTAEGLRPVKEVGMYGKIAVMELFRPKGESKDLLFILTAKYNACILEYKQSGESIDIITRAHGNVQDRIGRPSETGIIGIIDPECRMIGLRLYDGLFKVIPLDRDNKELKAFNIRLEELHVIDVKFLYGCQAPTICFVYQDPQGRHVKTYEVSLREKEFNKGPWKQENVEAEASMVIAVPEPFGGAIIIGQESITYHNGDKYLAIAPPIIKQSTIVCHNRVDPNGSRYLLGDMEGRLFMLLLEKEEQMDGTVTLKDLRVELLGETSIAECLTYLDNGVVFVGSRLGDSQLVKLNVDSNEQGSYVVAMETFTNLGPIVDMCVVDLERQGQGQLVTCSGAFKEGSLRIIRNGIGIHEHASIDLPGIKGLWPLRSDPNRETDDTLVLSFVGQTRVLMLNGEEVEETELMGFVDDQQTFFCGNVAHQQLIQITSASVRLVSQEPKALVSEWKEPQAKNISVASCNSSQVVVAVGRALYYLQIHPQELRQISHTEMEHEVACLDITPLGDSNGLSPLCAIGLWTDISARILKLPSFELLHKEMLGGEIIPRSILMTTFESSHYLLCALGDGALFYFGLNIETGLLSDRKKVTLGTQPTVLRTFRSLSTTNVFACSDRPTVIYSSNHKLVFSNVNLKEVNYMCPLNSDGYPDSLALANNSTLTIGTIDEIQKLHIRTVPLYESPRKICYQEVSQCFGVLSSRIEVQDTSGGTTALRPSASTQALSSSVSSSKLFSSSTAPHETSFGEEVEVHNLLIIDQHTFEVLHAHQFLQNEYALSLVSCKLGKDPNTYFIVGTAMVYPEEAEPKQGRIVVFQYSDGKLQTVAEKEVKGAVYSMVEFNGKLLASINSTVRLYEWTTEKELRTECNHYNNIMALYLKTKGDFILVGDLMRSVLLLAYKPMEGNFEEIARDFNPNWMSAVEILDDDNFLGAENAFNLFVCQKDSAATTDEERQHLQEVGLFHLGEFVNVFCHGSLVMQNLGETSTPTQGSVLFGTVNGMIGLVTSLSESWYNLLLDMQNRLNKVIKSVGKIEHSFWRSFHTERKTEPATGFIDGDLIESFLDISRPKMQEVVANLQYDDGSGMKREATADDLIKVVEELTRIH
Chain of CRBN (Homo sapiens, UniProt Q96SW2) (Q13619 whole entry partner, species assumed): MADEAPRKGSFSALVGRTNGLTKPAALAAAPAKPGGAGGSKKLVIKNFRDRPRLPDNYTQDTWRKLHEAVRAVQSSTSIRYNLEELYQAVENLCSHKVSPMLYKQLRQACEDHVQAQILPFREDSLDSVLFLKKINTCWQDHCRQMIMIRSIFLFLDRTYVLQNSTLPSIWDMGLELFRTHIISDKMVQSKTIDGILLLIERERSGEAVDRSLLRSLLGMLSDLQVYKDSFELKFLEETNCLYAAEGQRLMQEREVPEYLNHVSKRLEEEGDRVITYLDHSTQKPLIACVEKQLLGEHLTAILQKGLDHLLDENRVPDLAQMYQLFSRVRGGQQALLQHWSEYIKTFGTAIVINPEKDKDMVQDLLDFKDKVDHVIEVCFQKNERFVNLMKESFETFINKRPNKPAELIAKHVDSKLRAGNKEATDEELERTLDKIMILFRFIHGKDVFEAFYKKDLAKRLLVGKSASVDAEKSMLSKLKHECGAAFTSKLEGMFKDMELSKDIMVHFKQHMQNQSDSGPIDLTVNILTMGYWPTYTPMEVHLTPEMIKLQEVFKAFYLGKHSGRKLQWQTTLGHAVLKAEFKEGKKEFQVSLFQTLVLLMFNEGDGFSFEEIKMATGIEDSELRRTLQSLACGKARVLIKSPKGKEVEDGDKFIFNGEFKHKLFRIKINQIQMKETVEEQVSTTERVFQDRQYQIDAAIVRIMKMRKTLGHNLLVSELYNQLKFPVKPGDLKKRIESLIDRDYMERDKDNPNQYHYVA
Chain of CRBN (Homo sapiens, UniProt Q96SW2) (P62877 whole entry partner, species assumed): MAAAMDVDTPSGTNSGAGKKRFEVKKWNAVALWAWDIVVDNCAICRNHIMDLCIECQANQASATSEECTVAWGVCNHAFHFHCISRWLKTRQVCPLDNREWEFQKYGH

Structure (SMILES): Cc1nc2cccc(N)c2c(=O)n1C1CCC(=O)NC1=O (centres unmarked) [Compound A, 3-(5-amino-2-methyl-4-oxo-4H-quinazolin-3-yl)-piperidine-2,6-dione]
- regulation of the proteins listed in Table 4 (FOCUS cell line): upregulated
- regulation of the proteins listed in Table 6 (FOCUS cell line): downregulated
- level of ZFP91 (ZFP91 [1]; [10]): reduces
- level of ZFP91 protein (ZFP91 [1]; [11]): reduced
- level of ZFP91 (ZFP91 [1]; [12]): reduces
- level of ZFP91 (ZFP91 [1]; JHH4, 3D setting, 15 days): reduced
- colony number (JHH4 cells): reduced
- total colony area (JHH4 cells): reduced
- U87 tumor growth (U87 tumor): significantly inhibits
- ZFP91 level (ZFP91 [2]): down-regulated
- proteins whose levels increased in response to treatment [3]: CK1alpha, LGALS2, KAT1, GSPT1 as well as CRBN
- proteins whose levels reduced in response to treatment [3]: MST1R (RON), RARP4, MVP, ZFP91, IKBKE, PDE6D
- proteins commonly differentially abundant after treatment ([4]; 24 hours after treatment, both Focus and HAK-1AJ, compared with DMSO): WIBG, KAT1, Nestin, PARP4, and MVP
- proteins downregulated in response to treatment ([4]; proteomic screening study): MVP, PARP4, ZFP91, and ZNF198
- proteins upregulated in response to treatment ([4]; proteomic screening study): Nestin, KAT1/CCBL1, and WIBG; also recorded: Nestin, KAT1/CCBL1, WIBG, CK1-alpha, GSPT1
- effect of the compound on ZFP91 after knocking down of CRBN (ZFP91 [5]): reversed
- level of ZFP91 under protein synthesis inhibition (ZFP91 [5]; Focus and JHH4 cells treated with 100 ug/ml cycloheximide (CHX)): decreased; also recorded: accelerates
- P-TBK1 level (P-TBK1): upregulated
- level of CRBN (CRBN [6]; [10]): increases
- level of CRBN protein (CRBN [6]; [11]): increased
- level of CRBN (CRBN [6]; JHH4, 3D setting, 15 days): increased
- sensitivity of Hep3B cells to the compound (Hep3B cells): not
- ZFP91 in U87 xenograft tissue (ZFP91 [7]): degrades
- regulation of the proteins listed in Table 5 (JHH4 cell line; JHH4, 3D conditions): downregulated
- regulation of the proteins listed in Table 3 (JHH4 cell line; JHH4, 3D culture, basement membrane extracellular matrix): upregulated
- ZFP91 level (ZFP91 [8]): down-regulated
- colony number (Focus cells): reduced
- total colony area (Focus cells): reduced

Structure (SMILES): O=C1CCC(N2Cc3c(OCc4ccc(CN5CCOCC5)cc4)cccc3C2=O)C(=O)N1 (centres unmarked) [Compound B, 3-[4-(4-Morpholin-4-ylmethyl-benzyloxy)-1-oxo-1,3-dihydro-isoindol-2-yl]-piperidine-2,6-dione]
- level of ZFP91 (ZFP91 [1]; [12]): reduces
- effect of the compound on ZFP91 after knocking down of CRBN (ZFP91 [5]): reversed
- sensitivity of Hep3B cells to the compound (Hep3B cells): sensitive
- ZFP91 level (ZFP91 [8]): down-regulated

Structure (SMILES): CC(C)C[C@@H](C=O)NC(=O)[C@H](CC(C)C)NC(=O)[C@H](CC(C)C)NC(=O)OCc1ccccc1 [MG132, reference compound] (Cbz-Leu-Leu-Leu-aldehyde)
- effect on Compound A-induced ZFP91 degradation (ZFP91 [1]): inhibited; also recorded: block
- effect on reduction of ZFP91 by treatment compounds (ZFP91 [2]): blocked
- IC50 (NF-κB): 3000 nM
- effect on reduction of ZFP91 by Compound A or Compound B (ZFP91 [8]): blocked

Structure (SMILES): NS(=O)(=O)OC[C@@H]1C[C@@H](n2ccc3c(N[C@H]4CCc5ccccc54)ncnc32)C[C@@H]1O [MLN4924, reference compound]
- effect on Compound A-induced ZFP91 degradation (ZFP91 [1]): inhibited
- effect on Compound A-induced ZFP91 degradation (ZFP91 [1]; listed as MLN): block
- effect on reduction of ZFP91 by treatment compounds (ZFP91 [2]): blocked
- effect on reduction of ZFP91 by Compound A or Compound B (ZFP91 [8]): blocked

Structure (SMILES): O=C1CCC(N2C(=O)c3ccccc3C2=O)C(=O)N1 (centres unmarked) [thalidomide, 2-(2,6-dioxopiperidin-3-yl)-1H-isoindole-1,3(2H)-dione]
- auto-ubiquitination of CRBN (CRBN [9]): inhibit
